# Measured values: patent US20230133118A1, “COMPOSITIONS AND METHODS FOR TREATING CANCER” (Adagene AG, priority 2020, published 2023)
# Where “and” joins values, the source holds several entries; their conditions need not be identical. Identical values can stand only once. Like-named read-outs stand apart in the source and are kept apart here. Marks after values point to notes of the source that are not given here.
# Columns and labels:
# [1] = test system: peripheral CD4+ and CD8+ T cells; test: Ki-67 expression on peripheral T cells of patients by flow cytometry; format: in vivo, human
# Source text: T cell proliferation was examined by analyzing Ki-67 expression using flow cytometry analysis. Soluble CD137 (sCD137) levels in plasma were also examined using a validated MSD-based electrochemiluminescence assay.
# NK (CD16+/CD56+) cells = test: TBNK flow cytometry of patient peripheral blood, NK cell percentage; format: in vivo, human; conditions: for Percentage of NK cells (CD3-CD56+/CD16+), Postdose: individual patients
# Description: Pre- and post-treatment peripheral blood samples from 31 patients in a phase 1 trial were collected for biomarker analyses. The TBNK flow cytometry assay was employed to measure the composition of T (CD3+, CD4+/CD8+ subsets), B (CD19+) and NK (CD16+/CD56+) cells in peripheral blood samples. NK cell levels were determined as percentages of CD45+ lymphocytes and absolute cell counts.
# [2] = test system: L5178-R murine T cell lymphoma; test: L5178-R murine T cell lymphoma syngeneic model; format: in vivo, DBA/2 mice; conditions: 20 mg/kg i.p. once every 3 days
# Source text: The animals were randomized and treatment started when tumor volumes reach 50-80 mm^3, or on the day of cell inoculation (FIGS. 17A and 17C). Each group consisted of 8 tumor-bearing mice. […] Tumor growth and animal body weight were monitored every 2-3 days.
# human blood = test: Cytokine release in human blood ex vivo; format: cell-based
# [3] = human, in vivo, iv
# Description: Blood samples for PK analysis were collected at Cycle 1 (Day 1: pre-dose and 2, 6, 12, and 24 hours after the end of infusion; once on Days 8, 15, and 22), Day 1 pre-dose and 2 hours after the end of infusion of subsequent cycles, and at the End of Treatment. […] PK parameters were estimated using a non-compartmental method with WinNonlin.
# 4T1 breast cancer cells = test: 4T1 breast cancer model, ADG106 with ADG116; format: in vivo, BALB/c mice; conditions: ADG106 5 mg/kg, ADG116 2 mg/kg i.p. twice a week for 2 weeks
# Source text: Tumor growth was monitored twice weekly and is reported as mean tumor volume ±SEM over time.
# [4] = test system: 3LL (JCRB) murine lung cancer cells; test: 3LL lung cancer model, ADG106 with atezolizumab; format: in vivo, C57BL/6 mice; conditions: 10 mg/kg i.p. twice a week for 3 weeks
# Source text: C57BL/6 mice (n=10 per group, female, 6-8 weeks old) were inoculated subcutaneously with 3LL (JCRB) murine lung cancer cells, a Lewis lung cancer cell line.
# [5] = target: CD137 / CD137 ligand (4-1BBL) (Homo sapiens, UniProt Q07011); test: Blocking of CD137 / CD137 ligand interaction; format: binding
# Source text: This was expected given that CD137 is known to function as a co-stimulatory T cell receptor. […] This property might prevent the potential of dual independent activation of CD137 potentially accounting for its distinct pharmacology and toxicology profile among this class of therapeutic antibodies.
# CD137 = CD137 (Homo sapiens, UniProt Q07011); test: Cellular NFκB reporter gene assay (CD137-expressing NFκB-Luc Jurkat reporter cells); format: cell-based; set-up: expressed in transfected cells; host or cells: NFκB-Luc Jurkat reporter cells (with or without co-cultured CHO-K1 cells expressing human FcγRIIb)
# Description: (§1) The CD137-expressing NFκB-Luc Jurkat reporter cells were stimulated with the anti-CD137 antibodies in the absence (left panel) or presence (right panel) of co-cultured CHO-K1 cell expressing human FcγRIIb. Luciferase activity was measured by bioluminescence assay.
# CD137 receptor = test: as above; format: cell-based, human; conditions: functional cellular NFκB reporter gene assay
# Description: as §1
# MC38 colon cancer cells = test: MC38 colon cancer model, ADG106 with local radiation; format: in vivo, C57BL/6 mice; conditions: 10 mg/kg twice a week for 3 weeks
# Source text: C57BL/6 mice (n=8 per group, female, 6-8 weeks old) were transplanted subcutaneously with 5×10^5 MC38 colon cancer cells. […] Tumor growth was monitored twice weekly and reported as mean tumor volume ±SEM over time.
# Sequence of CD137 (Q07011 24-255): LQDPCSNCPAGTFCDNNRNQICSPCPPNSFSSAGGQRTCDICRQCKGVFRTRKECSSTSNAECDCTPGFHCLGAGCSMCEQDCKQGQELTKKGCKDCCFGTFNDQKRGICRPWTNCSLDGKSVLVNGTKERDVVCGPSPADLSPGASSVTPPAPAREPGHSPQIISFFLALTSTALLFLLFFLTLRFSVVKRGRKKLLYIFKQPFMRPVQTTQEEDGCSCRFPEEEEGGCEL
# Sequence of CD137 / CD137 ligand (4-1BBL) (Q07011 24-255): as above
substance,measurement,setting,value
"ADG106: fully human agonistic anti-CD137 monoclonal IgG4 antibody; heavy chain SEQ ID NO: 10, light chain SEQ ID NO: 11",increase in the frequency of Ki-67+CD4+ T cells,[1]; patient R011,increased about one fold
same,increase in the frequency of proliferating CD8+ T cells,[1]; patient R011,four to five fold increase
same,total CD8+ T cells expressing Ki-67 at peak,"[1]; patient R011, 21 days after infusion",~25%
same,"Percentage of NK cells (CD3-CD56+/CD16+), Postdose",NK (CD16+/CD56+) cells; C1D8,25.14% and 28.38% and 11.18% and 22.03% and 35.85% and 36.13% and 8.25% and 22.79% and 46.22% and 15.01% and 14.06% and 34.54% and 11.84% and 32.43% and 10.14% and 23.1% and 55% and 35.4% and 19.5% and 14.7% and 25%
same,"Percentage of NK cells (CD3-CD56+/CD16+), Postdose",NK (CD16+/CD56+) cells; C1D15,21.21* % and 22.19* %
same,"Percentage of NK cells (CD3-CD56+/CD16+), Postdose",NK (CD16+/CD56+) cells; C1D21,39.58^# % and 4.27^# % and 20.01^# % and 34.74^# % and 40.45^# % and 26.93^# % and 27.23^# % and 18.81^# % and 16.65^# %
same,dose saturating CD137 receptors on NK cells (NK cell proliferation effect),NK (CD16+/CD56+) cells; patients,≥ 1.5 mg/kg
same,antitumor activity,[2],resistant to ADG106 treatment
same,"cytokine (IL-2, IL-4, IL-6, IL-10, TNF-α, IFN-γ, IL-17) release",human blood,did not stimulate cytokine
same,T1/2,[3]; 0.03 mg/kg,87 h
same,T1/2,[3]; 0.3 mg/kg,159 h
same,T1/2,[3]; 1 mg/kg,146.3 h
same,T1/2,[3]; 3 mg/kg,149 h
same,"anti-tumor activity, monotherapy",4T1 breast cancer cells,showed anti-tumor activity
same,"anti-tumor activity, monotherapy",[4],showed anti-tumor activity
same,blocking of the interaction of CD137 to the CD137 ligand (4-1BBL),[5],fully blocks
same,concentration saturating activation of CD137 receptor signaling,"CD137; crosslinking-dependent, in vitro",1 µg/mL
same,EC80 of NFκB signaling activation,CD137; nonlinearly regressed concentration-effect curve,≤ 1.8 µg/mL
same,human CD137 agonism following crosslinking,CD137; with crosslinking,function as agonists
same,"potency to activate recombinant human, monkey, mouse, and rat CD137 receptors",CD137 receptor,comparable nanomolar potency
same,"antitumor activity, alone",MC38 colon cancer cells,marginal if any antitumor activity
